# Experimental data: ChEMBL document CHEMBL3885881, “DrugMatrix”
# Species on record: Rattus norvegicus
# Type: toxicity, organism-based, Sprague-Dawley
# Conditions: in vivo, po, 24 h, route oral GAVAGE, time 1 day, […]; for ABSOLUTE BASOPHIL / ABSOLUTE EOSINOPHIL / ABSOLUTE LYMPHOCYTE / ABSOLUTE MONOCYTE / BASOPHIL / EOSINOPHIL / ERYTHROCYTE COUNT / HEMATOCRIT / HEMOGLOBIN / LEUKOCYTE COUNT / LYMPHOCYTE / MEAN CORPUSCULAR HEMOGLOBIN / MEAN CORPUSCULAR HEMOGLOBIN CONCENTRATION / MEAN CORPUSCULAR VOLUME / MONOCYTE / NEUTROPHIL / PLATELET COUNT: tissue Blood; for ALANINE AMINOTRANSFERASE / ALBUMIN / ALKALINE PHOSPHATASE / ASPARTATE AMINOTRANSFERASE / BLOOD UREA NITROGEN / CARBON DIOXIDE / CHLORIDE / CHOLESTEROL / CREATINE PHOSPHOKINASE / CREATININE / GLUCOSE / LACTATE DEHYDROGENASE / LIPASE / PHOSPHORUS / POTASSIUM / SODIUM / TOTAL BILIRUBIN / TOTAL PROTEIN / URIC ACID: tissue Plasma
# [1] = 0 mg/kg, vehicle control, dose level Control
# Description: DrugMatrix - Regimen: Single
structure (smiles),measurement,setting,value
C=CCN [ALLYLAMINE],ABSOLUTE BASOPHIL,[1],46.7 cells/µL
same,ABSOLUTE EOSINOPHIL,[1],130 cells/µL
same,ABSOLUTE LYMPHOCYTE,[1],8720 cells/µL
same,ABSOLUTE MONOCYTE,[1],140 cells/µL
same,BASOPHIL,[1],0.43%
same,EOSINOPHIL,[1],1.33%
same,ERYTHROCYTE COUNT,[1],6.45 x10E6/uL
same,HEMATOCRIT,[1],42.2%
same,HEMOGLOBIN,[1],13.33 G/DL
same,LEUKOCYTE COUNT,[1],10.59 x10E3/uL
same,LYMPHOCYTE,[1],82.13%
same,MEAN CORPUSCULAR HEMOGLOBIN,[1],20.67 pg
same,MEAN CORPUSCULAR HEMOGLOBIN CONCENTRATION,[1],31.6 G/DL
same,MEAN CORPUSCULAR VOLUME,[1],65.4 fL
same,MONOCYTE,[1],1.37%
same,NEUTROPHIL,[1],14.3%
same,PLATELET COUNT,[1],1048.67 x10E3/uL
same,ALANINE AMINOTRANSFERASE,[1],44 u/L
same,ALBUMIN,[1],3.93 G/DL
same,ALKALINE PHOSPHATASE,[1],551.33 u/L
same,ASPARTATE AMINOTRANSFERASE,[1],97 u/L
same,BLOOD UREA NITROGEN,[1],13.5 mg/dL
same,CARBON DIOXIDE,[1],37.33 mmol/L
same,CHLORIDE,[1],102.33 MEQ/L
same,CHOLESTEROL,[1],83 mg/dL
same,CREATINE PHOSPHOKINASE,[1],365.33 u/L
same,CREATININE,[1],0.4 mg/dL
same,GLUCOSE,[1],189 mg/dL
same,LACTATE DEHYDROGENASE,[1],170.33 u/L
same,LIPASE,[1],10.67 u/L
same,PHOSPHORUS,[1],11.53 mg/dL
same,POTASSIUM,[1],5.63 MEQ/L
same,SODIUM,[1],144.33 MEQ/L
same,TOTAL BILIRUBIN,[1],0.4 mg/dL
same,TOTAL PROTEIN,[1],6.27 G/DL
same,URIC ACID,[1],0.87 mg/dL
same,ABSOLUTE BASOPHIL,"40 mg/kg, dose level Low",26.7 cells/µL
same,ABSOLUTE EOSINOPHIL,"40 mg/kg, dose level Low",160 cells/µL
same,ABSOLUTE LYMPHOCYTE,"40 mg/kg, dose level Low",6420 cells/µL
same,ABSOLUTE MONOCYTE,"40 mg/kg, dose level Low",190 cells/µL
same,BASOPHIL,"40 mg/kg, dose level Low",0.3%
same,EOSINOPHIL,"40 mg/kg, dose level Low",1.9%
same,ERYTHROCYTE COUNT,"40 mg/kg, dose level Low",7.01 x10E6/uL
same,HEMATOCRIT,"40 mg/kg, dose level Low",45.2%
same,HEMOGLOBIN,"40 mg/kg, dose level Low",14.3 G/DL
same,LEUKOCYTE COUNT,"40 mg/kg, dose level Low",8.6 x10E3/uL
same,LYMPHOCYTE,"40 mg/kg, dose level Low",74.17%
same,MEAN CORPUSCULAR HEMOGLOBIN,"40 mg/kg, dose level Low",20.43 pg
same,MEAN CORPUSCULAR HEMOGLOBIN CONCENTRATION,"40 mg/kg, dose level Low",31.67 G/DL
same,MEAN CORPUSCULAR VOLUME,"40 mg/kg, dose level Low",64.6 fL
same,MONOCYTE,"40 mg/kg, dose level Low",2.23%
same,NEUTROPHIL,"40 mg/kg, dose level Low",20.97%
same,PLATELET COUNT,"40 mg/kg, dose level Low",1314 x10E3/uL
same,ALANINE AMINOTRANSFERASE,"40 mg/kg, dose level Low",38 u/L
same,ALBUMIN,"40 mg/kg, dose level Low",3.9 G/DL
same,ALKALINE PHOSPHATASE,"40 mg/kg, dose level Low",499 u/L
same,ASPARTATE AMINOTRANSFERASE,"40 mg/kg, dose level Low",72.33 u/L
same,BLOOD UREA NITROGEN,"40 mg/kg, dose level Low",10 mg/dL
same,CARBON DIOXIDE,"40 mg/kg, dose level Low",38.67 mmol/L
same,CHLORIDE,"40 mg/kg, dose level Low",104 MEQ/L
same,CHOLESTEROL,"40 mg/kg, dose level Low",72.67 mg/dL
same,CREATINE PHOSPHOKINASE,"40 mg/kg, dose level Low",242.67 u/L
same,CREATININE,"40 mg/kg, dose level Low",0.47 mg/dL
same,GLUCOSE,"40 mg/kg, dose level Low",171.33 mg/dL
same,LACTATE DEHYDROGENASE,"40 mg/kg, dose level Low",92.33 u/L
same,LIPASE,"40 mg/kg, dose level Low",15.33 u/L
same,PHOSPHORUS,"40 mg/kg, dose level Low",11.83 mg/dL
same,POTASSIUM,"40 mg/kg, dose level Low",5.73 MEQ/L
same,SODIUM,"40 mg/kg, dose level Low",145 MEQ/L
same,TOTAL BILIRUBIN,"40 mg/kg, dose level Low",0.3 mg/dL
same,TOTAL PROTEIN,"40 mg/kg, dose level Low",6.27 G/DL
same,URIC ACID,"40 mg/kg, dose level Low",1.3 mg/dL
